The values below come from ChEMBL document CHEMBL1201862, “PubChem BioAssay data set” (2004).

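Values below derive from 48-hour exposures of cells grown in 96-well plates, with endpoints linearly interpolated between the two concentrations bracketing the appropriate inhibition level. GI50 is the concentration that inhibits growth by half.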 Calls of active or inactive are those of the source. Cut-off read from the data, not from the text of the source: active = GI50 up to about 1.1 µM and inactive = higher. Bounds are passed on as bounds.

Test systems include CAKI-1; DLD-1; DMS-273; HCC 2998; HCT-15; K562; M19-MEL; NCI/ADR-RES; RPMI-8226; RXF 393; SNB-78; UACC-62; XF498; OVCAR-3; TK-10.
Holding throughout (test): NCI tumour cell line growth inhibition, 48 h

For the molecule `C=C1C(O)C2(O)OCC34C(CC5C(C)=CC(=O)C(O)C5(C)C23)OC(=O)C(OC(=O)C/C=C/CCCCCCCC)C14` (stereo not drawn), the GI50 in the assay on CAKI-1 is 0.0449 µM (active); with DLD-1, 0.02 µM (active); in the assay on DMS-273, 0.02 µM (active); in the assay with HCC 2998, 0.02 µM (active); with HCT-15 it was 0.0241 µM; in the assay with K562 it was 0.02 µM (active). The GI50 is 0.02 µM (active) with M19-MEL; 0.162 µM (active) in the assay with NCI/ADR-RES; 0.02 µM (active) with RPMI-8226; 0.0223 µM (active) in the assay on RXF 393; 0.0219 µM (active) in the assay with SNB-78; 0.0214 µM (active) in the assay on UACC-62. Moreover, the GI50 with XF498 was 0.0221 µM (active).

As for `CSc1nc(NC2OCC(O)C(O)C2O)c(N)c(=O)n1C` (stereo not drawn), the GI50 was > 100 µM (inactive) with DLD-1; > 100 µM (inactive) with DMS-273; > 100 µM (inactive) in the assay with HCC 2998; over 100 µM in the assay on HCT-15; > 100 µM (inactive) in the assay with K562; > 100 µM (inactive) in the assay with NCI/ADR-RES. The GI50 in the assay with OVCAR-3, in the assay on RPMI-8226, in the assay with RXF 393, in the assay on SNB-78, with UACC-62 and with XF498 was > 100 µM (inactive) each time.

For `CC(C)(C)c1ccc2c(c1)OP1(Oc3cccc4cccnc34)(O2)Oc2ccc(C(C)(C)C)cc2O1`, the GI50 in the assay with CAKI-1 was 12.2 µM (inactive); with DLD-1, 3.92 µM (inactive); in the assay on DMS-273 it was 3.75 µM (inactive); with HCC 2998, 9.89 µM (inactive); in the assay on HCT-15, 2.86 µM; in the assay with K562, 2.43 µM (inactive). The GI50 with M19-MEL is 10.5 µM (inactive); with NCI/ADR-RES, 2.96 µM (inactive); in the assay on OVCAR-3, 1.79 µM (inactive); with RPMI-8226, 0.597 µM (active); in the assay on RXF 393 it was 3.37 µM (inactive); in the assay on SNB-78, 34.4 µM (inactive). Besides, the GI50 in the assay on UACC-62 is 3.26 µM (inactive); in the assay with XF498, 2.72 µM (inactive).

For `Cc1ccc(NC(=O)C2C(=O)N(c3ccc(C)c(C)c3)C(=O)/C2=N\NC(N)=S)cc1C` (stereo not drawn), the GI50 was > 100 µM (inactive) with CAKI-1; 79.6 µM (inactive) in the assay on DLD-1; > 100 µM (inactive) in the assay with DMS-273; over 100 µM with HCT-15; 60.7 µM (inactive) in the assay on K562; > 100 µM (inactive) with M19-MEL. For the same molecule, the GI50 in the assay with OVCAR-3 is > 100 µM (inactive); in the assay on RPMI-8226 it was > 100 µM (inactive); in the assay on SNB-78, > 100 µM (inactive); with TK-10, > 100 µM (inactive); in the assay with UACC-62 it was 50 µM (inactive); with XF498, 97.1 µM (inactive).

For `CCC1NC(/N=N/c2ccc([N+](=O)[O-])cc2)(P(=O)(OC(C)C)OC(C)C)OC1=O` (stereo not drawn), the GI50 in the assay with CAKI-1, in the assay with DLD-1, in the assay on DMS-273, in the assay on HCC 2998, with K562 and with M19-MEL was > 100 µM (inactive) throughout. In addition, the GI50 with OVCAR-3 is > 100 µM (inactive); in the assay on RPMI-8226, > 100 µM (inactive); in the assay with SNB-78 it was > 100 µM (inactive); in the assay on TK-10, > 100 µM (inactive); in the assay with UACC-62, 97.1 µM (inactive); with XF498, > 100 µM (inactive).

Turning to `C[C@]12CCC3[C@@H](C[C@H]4OC(=O)[C@@]35CCC(=O)C=C45)C1CCC2=O` (stereo partly drawn), the GI50 in the assay on DLD-1 was > 100 µM (inactive); with HCC 2998 it was > 100 µM (inactive); with HCT-15, over 100 µM; with K562, > 100 µM (inactive); in the assay on M19-MEL, > 100 µM (inactive); with OVCAR-3, > 100 µM (inactive). In addition, the GI50 in the assay on RPMI-8226, in the assay on RXF 393, in the assay on TK-10 and in the assay on XF498 was > 100 µM (inactive) each time.
